Test results published in the supplement of paper PMC11061612.

Columns and labels:
Test in all cases: Bliss excess, mean over the matrix (fraction); higher = more synergy
[1] = system: MKN45 (Gastric Carcinoma)
Outline: (§1)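 Cell lines grown in DMEM/F12 or RPMI with 10% FBS were plated in 1536-well plates and held 24 hours at 37°C, 5% CO2 before 72 hours of exposure to two-drug dose matrices, with DMSO typically at 0.2%. CellTiter-Glo 2.0 luminescence gave viability, which was converted to inhibition. Vehicle wells were set to 0 and blank wells to 1. Combination Emax is the second-highest inhibition in the matrix, and Bliss excess is the observed combination effect minus the expected EA + EB − EA·EB, where EA and EB are the single-agent effects.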

[2] = system: HSC-39 (Gastric Carcinoma)
Outline: as §1

[3] = system: REH (B-Lymphoblastic Leukemia)
Outline: as §1

[4] = system: SF539 (Glioblastoma)
Outline: as §1

[5] = system: MFE-280 (Endometrial Carcinoma)
Outline: as §1

[6] = system: OPM-2 (Plasma Cell Myeloma)
Outline: as §1

[7] = system: OVMIU (Ovarian Carcinoma)
Outline: as §1

[8] = system: NCI-H2342 (Lung Adenocarcinoma)
Outline: as §1

[9] = system: COLO-680N (Esophageal Squamous Cell Carcinoma)
Outline: as §1

[10] = system: RCM-1 (Colorectal Carcinoma)
Outline: as §1

[11] = system: L-1236 (Hodgkin's Lymphoma)
Outline: as §1

[12] = system: PSN1 (Pancreatic Carcinoma)
Outline: as §1

[13] = system: LK-2 (Squamous Cell Lung Carcinoma)
Outline: as §1

[14] = system: SHP-77 (Small Cell Lung Carcinoma)
Outline: as §1

[15] = system: VAL (B-Cell Non-Hodgkin's Lymphoma)
Outline: as §1

[16] = system: PANC-03-27 (Pancreatic Carcinoma)
Outline: as §1

[17] = system: TE-8 (Esophageal Squamous Cell Carcinoma)
Outline: as §1

[18] = system: SK-MEL-2 (Melanoma)
Outline: as §1

[19] = system: NB12 (Neuroblastoma)
Outline: as §1

[20] = system: SK-PN-DW (Other Solid Carcinomas)
Outline: as §1

Row | Structure (SMILES) | Bliss excess [1] | Bliss excess [2] | Bliss excess [3] | Bliss excess [4] | Bliss excess [5] | Bliss excess [6] | Bliss excess [7] | Bliss excess [8] | Bliss excess [9] | Bliss excess [10] | Bliss excess [11] | Bliss excess [12] | Bliss excess [13] | Bliss excess [14] | Bliss excess [15] | Bliss excess [16] | Bliss excess [17] | Bliss excess [18] | Bliss excess [19] | Bliss excess [20]
1 | Cc1nc(-c2cn3c(n2)-c2ccc(-c4cnn(C(C)(C)C(N)=O)c4)cc2OCC3)n(C(C)C)n1 [Taselisib] + O=C(Nc1ccc2[nH]nc(-c3ccncc3)c2c1)[C@@H]1CCN(CC(=O)N2CCN(c3ccc(-c4ncccn4)cc3)CC2)C1 [SCH772984] (first compound max 10 µM, 7x7, partner max 5 µM) | 0.0587 | 0.029 | 0.102 | 0.0465 | 0.0107 | 0.0779 | 0.0699 | 0.103 | 0.0219 | 0.1 | 0.0543 | 0.0797 | 0.0371 | -0.0221 | -0.002 | 0.0848 | -0.0514 | 0.136 | -0.0116 | -0.0332
2 | O=C(c1cc(Cc2n[nH]c(=O)c3ccccc23)ccc1F)N1CCN(C(=O)C2CC2)CC1 [Olaparib] + Cc1c2c(nn1C)CSCc1cc(n(C)n1)CSc1cc(c3ccccc3c1)OCCCc1c(C(=O)O)n(C)c3c-2c(Cl)ccc13 [AZD5991] (first compound max 10 µM, 7x7, partner max 1 µM) | -0.0368 | 0.0101 | 0.0318 | -0.0003 | -0.0341 | 0.0251 | -0.0646 | -0.0462 | -0.0543 | -0.0412 | -0.0851 | -0.0506 | 0.041 | 0.0008 | 0.0078 | -0.0462 | -0.0467 | 0.0379 | -0.0407 | -0.0065
3 | N#Cc1cnc(Nc2cc(NC[C@H]3CNCCO3)c(C(F)(F)F)cn2)cn1 [SRA737] + CCc1c2c(nc3ccc(O)cc13)-c1cc3c(c(=O)n1C2)COC(=O)[C@]3(O)CC [SN-38] (first compound max 10 µM, 7x7, partner max 0.3 µM) | 0.0226 | 0.0294 | -0.0324 | -0.0174 | 0.0626 | 0.0183 | -0.0769 | 0.0737 | 0.026 | -0.0427 | -0.0136 | -0.0149 | 0.154 | 0.13 | -0.122 | -0.0648 | 0.0052 | 0.0931 | -0.114 | -0.0406
4 | CS(=O)(=O)CCNCc1ccc(-c2ccc3ncnc(Nc4ccc(OCc5cccc(F)c5)c(Cl)c4)c3c2)o1 [Lapatinib] + Cn1cnc2c(F)c(Nc3ccc(Br)cc3Cl)c(C(=O)NOCCO)cc21 [Selumetinib] (first compound max 10 µM, 7x7, partner max 10 µM) | -0.0778 | -0.0089 | -0.0363 | 0.0066 | -0.063 | -0.0294 | -0.102 | -0.0418 | -0.0171 | 0.0661 | -0.0646 | -0.0544 | -0.0131 | -0.02 | -0.0549 | 0.044 | -0.0505 | 0.0062 | -0.11 | -0.0095
5 | C=CCn1c(=O)c2cnc(Nc3ccc(N4CCN(C)CC4)cc3)nc2n1-c1cccc(C(C)(C)O)n1 [AZD1775] + CCc1c2c(nc3ccc(O)cc13)-c1cc3c(c(=O)n1C2)COC(=O)[C@]3(O)CC [SN-38] (first compound max 1 µM, partner max 0.3 µM) | -0.0893 | -0.0065 | -0.0887 | -0.0037 | -0.0149 | 0.0117 | -0.055 | 0.0025 | -0.0066 | -0.0402 | -0.0372 | -0.0499 | 0.0768 | -0.0315 | -0.0619 | -0.0585 | 0.0659 | 0.0426 | -0.0514 | -0.0903
6 | Cc1cc2ncnn2cc1Nc1ncc2c(n1)n(C1CCOCC1)c(=O)n2C [AZD7648] + COc1cc([C@@H]2c3cc4c(cc3[C@@H](O[C@@H]3O[C@@H]5CO[C@@H](C)O[C@H]5[C@H](O)[C@H]3O)[C@H]3COC(=O)[C@H]23)OCO4)cc(OC)c1O [Etoposide] (first compound max 10 µM, 7x7, partner max 10 µM) | -0.0126 | 0.0582 | 0.158 | 0.136 | -0.0236 | -0.0072 | 0.0243 | 0.0597 | 0.0384 | 0.0309 | 0.0004 | 0.0771 | 0.0713 | 0.0139 | -0.0395 | -0.0401 | 0.0501 | -0.0163 | 0.121 | 0.184
7 | C[C@@H](Nc1cc(F)cc(F)c1)c1cc(C(=O)N(C)C)cc2c(=O)cc(N3CCOCC3)oc12 [AZD8186] + CC(=O)c1c(C)c2cnc(Nc3ccc(N4CCNCC4)cn3)nc2n(C2CCCC2)c1=O [Palbociclib] (first compound max 10 µM, 7x7, partner max 10 µM) | -0.0476 | 0.0271 | 0.0638 | 0.0583 | -0.0424 | 0.0338 | -0.0439 | 0.0877 | -0.0328 | -0.0077 | -0.138 | 0.0298 | 0.0023 | -0.0692 | -0.0615 | 0.0614 | -0.0495 | -0.0346 | 0.0009 | 0.073
8 | Cc1c2c(nn1C)CSCc1cc(n(C)n1)CSc1cc(c3ccccc3c1)OCCCc1c(C(=O)O)n(C)c3c-2c(Cl)ccc13 [AZD5991] + CS(=O)(=O)CCNCc1ccc(-c2ccc3ncnc(Nc4ccc(OCc5cccc(F)c5)c(Cl)c4)c3c2)o1 [Lapatinib] (first compound max 1 µM, 7x7, partner max 10 µM) | -0.146 | -0.0305 | -0.038 | 0.0226 | -0.012 | -0.0145 | 0.0371 | 0.012 | -0.011 | 0.0137 | 0.102 | -0.045 | -0.019 | 0.0045 | -0.137 | -0.0485 | 0.0014 | -0.0147 | -0.0394 | 0.0081
9 | Cc1c2c(nn1C)CSCc1cc(n(C)n1)CSc1cc(c3ccccc3c1)OCCCc1c(C(=O)O)n(C)c3c-2c(Cl)ccc13 [AZD5991] + CC(=O)O[C@H]1C(=O)[C@@]2(C)[C@H]([C@H](OC(=O)c3ccccc3)[C@]3(O)C[C@H](OC(=O)[C@H](O)[C@@H](NC(=O)c4ccccc4)c4ccccc4)C(C)=C1C3(C)C)[C@]1(OC(C)=O)CO[C@@H]1C[C@@H]2O [Paclitaxel] (first compound max 1 µM, 7x7, partner max 3 µM) | -0.0238 | 0.0078 | -0.0011 | 0.0053 | -0.0363 | 0.0072 | 0.0231 | 0.082 | 0.0107 | 0.0336 | -0.0631 | 0.0098 | 0.0165 | -0.0043 | -0.0913 | 0.0181 | -0.0041 | -0.0341 | -0.0424 | -0.0012
10 | CC1(C)CCC(CN2CCN(c3ccc(C(=O)NS(=O)(=O)c4ccc(NCC5CCOCC5)c([N+](=O)[O-])c4)c(Oc4cnc5[nH]ccc5c4)c3)CC2)=C(c2ccc(Cl)cc2)C1 [Venetoclax] + CS(=O)(=O)CCNCc1ccc(-c2ccc3ncnc(Nc4ccc(OCc5cccc(F)c5)c(Cl)c4)c3c2)o1 [Lapatinib] (first compound max 1 µM, 7x7, partner max 10 µM) | -0.054 | -0.0257 | 0.0755 | -0.0166 | -0.0477 | 0.0306 | -0.0328 | -0.0374 | -0.0166 | -0.0112 | -0.0583 | -0.0211 | 0.0165 | 0.0197 | -0.0033 | -0.0535 | -0.0453 | -0.0207 | -0.0427 | -0.0284
11 | Cc1c2c(nn1C)CSCc1cc(n(C)n1)CSc1cc(c3ccccc3c1)OCCCc1c(C(=O)O)n(C)c3c-2c(Cl)ccc13 [AZD5991] + Nc1ccn([C@@H]2O[C@H](CO)[C@@H](O)C2(F)F)c(=O)n1 [Gemcitabine] (first compound max 1 µM, 7x7, partner max 0.3 µM) | -0.0655 | 0.006 | -0.0103 | 0.0133 | -0.0363 | 0.0109 | -0.0823 | 0.0488 | -0.0215 | 0.0164 | -0.0646 | -0.0486 | 0.0117 | 0.0181 | -0.0324 | 0.0182 | -0.0682 | -0.0657 | 0.0008 | 0.008
12 | C[C@@H](Oc1cc(-c2cnn(C3CCNCC3)c2)cnc1N)c1c(Cl)ccc(F)c1Cl [Crizotinib] + Cn1cnc2c(F)c(Nc3ccc(Br)cc3Cl)c(C(=O)NOCCO)cc21 [Selumetinib] (first compound max 10 µM, 7x7, partner max 10 µM) | -0.0192 | -0.0264 | -0.0309 | -0.0212 | -0.0544 | -0.0463 | -0.0302 | -0.0267 | -0.039 | -0.0089 | -0.0849 | 0.0373 | 0.011 | 0.0404 | -0.0516 | -0.0689 | -0.0898 | 0.0382 | -0.0665 | -0.0705
